Experimental data from patent publication US8063101B2, “Carotenoid analogs and derivatives for the prevention of platelet aggregation” (Cardax Pharmaceuticals, Inc., priority 2007, dated 2011).
Like-named read-outs stand apart in the source and are kept apart here.

Legend:
vascular platelets = assay: Platelet-derived nitric oxide (NO) release after IP3 stimulation, NO nanosensor; format: cell-based, Wistar-Kyoto (WKY) rats
Protocol: Wistar-Kyoto (WKY) rats were anaesthetized and blood was collected directly from the heart using a 10 mL syringe that contained 3.8% sodium citrate (9:1, v v^−1). […] The platelet rich plasma (PRP) was then removed by aspiration. […] The number of platelets was counted and adjusted to 3.5×10^8 per mL with Tyrode-HEPES buffer. The platelets were incubated in an aggregometer with a NO nanosensor (working electrode) placed in the platelet suspension. […] All measurements of NO release were conducted in Hank's balanced salt solution (HBSS) at 37° C. The sensor operated with a three-electrode system: nanosensor (working electrode), saturated calomel electrode (reference electrode), and platinum wire (counter electrode, 0.5 mm diameter). The three electrodes were connected to a potentiostat/galvanostat PAR273. The baseline was stabilized after ˜20 s. With a nanoinjector, the test compounds were injected onto the surface of the cells following solubilization in buffer. In experiments with multiple compounds, the compounds were injected simultaneously. […] Data were acquired with the use of custom software. Amperograms (current vs. time curves) were recorded with a Guniry FAS1 Femtostat (Warminster, Pa.). The nanosensor for NO was calibrated using saturated solution (concentration 1.82 mM verified with the coulometric method). […] The data were presented as mean±S.D. for each of the triplicate measurements. The data (calculation and plotting) were transferred to Microcal Origin Software (OriginLab Corp., Northampton, Mass.). […] The NO concentration was calculated using current responses obtained from standard NO solution (prepared from […] stock solution, saturated aqueous NO solution).

platelets [1] = assay: Platelet-derived peroxynitrite release after IP3 stimulation; format: cell-based; settings: IP3 1.0 μM; for effect on platelet ONOO— release: compound alone at 1.0 μM, FIG. 12
Excerpt: Values are reported as mean±S.D. (N=5). *p<0.001 and †p<0.05 versus control; §p<0.001 versus aspirin treatment (ANOVA Student-Newman-Keuls multiple comparisons test; overall ANOVA: p<0.0001; F=52.475). […] Values are reported as mean±S.D. (N=5). *p<0.001 versus control and †p<0.001 versus aspirin alone (ANOVA Student-Newman-Keuls multiple comparisons test; overall ANOVA: p<0.0001; F=21.905). Abbreviations: Astax=Astaxanthin. […] Values are reported as mean±S.D. (N=5). *p<0.05 and **p<0.001 versus control; †p<0.05 and ‡p<0.001 versus simvastatin alone (ANOVA Student-Newman-Keuls multiple comparisons test; overall ANOVA: p<0.0001; F=13.716). Abbreviations: Astax=Astaxanthin; Simva=Simvastatin.

platelets [2] = assay: Platelet nitric oxide/peroxynitrite release ratio after IP3 stimulation; format: cell-based; settings: IP3 1.0 μM
Excerpt: Values are reported as mean±S.D. (N=5). *p<0.05 and **p<0.001 versus control; †p<0.01 and ‡p<0.001 versus aspirin alone (ANOVA Student-Newman-Keuls multiple comparisons test; overall ANOVA: p<0.0001; F=129.98). Abbreviations: Astax=Astaxanthin. […] Values are reported as mean±S.D. (N=5). *p<0.05 and **p<0.001 versus control; †p<0.001 versus simvastatin alone (ANOVA Student-Newman-Keuls multiple comparisons test; overall ANOVA: p<0.0001; F=84.477). Abbreviations: Astax=Astaxanthin; Simva=Simvastatin. […] Values are reported as mean±S.D. (N=5). *p<0.05 and †p<0.001 versus control; §p<0.001 versus astaxanthin treatment (ANOVA Student-Newman-Keuls multiple comparisons test; overall ANOVA: p<0.0001; F=40.020).

[3] = test system: human umbilical vein endothelial cells (HUVEC); assay: Calcium ionophore (CaI)-stimulated total nitric oxide release from HUVEC; format: cell-based; settings: 3S,3′S-AST 5.0 μM, clopidogrel 1.0 μM, alone or in combination; FIG. 5
Protocol: (§1) Human umbilical vein endothelial cells (HUVECs) were isolated into primary cultures from white female donors by Clonetics (San Diego, Calif.), essentially as described (Mason et al. 2005). All donors were reported to be healthy and none had pregnancy or prenatal complications. All measurements were recorded in vitro using a sensitive porphyrinic probe, also as previously described. HUVEC cells were grown in Ham's F12K medium with 2 mM L-glutamine adjusted to contain 1.5 g/L sodium bicarbonate and supplemented with 0.1 mg/mL heparin and 0.03-0.05 mg/mL endothelial cell growth supplement (ECGS) plus 10% fetal bovine serum. The HUVEC cells were kept in an atmosphere of elevated CO2 concentration (5%).
All measurements of NO release were conducted in Hank's balanced salt solution (HBSS) at 37° C. The sensor operated with a three-electrode system: nanosensor (working electrode), saturated calomel electrode (reference electrode), and platinum wire (counter electrode, 0.5 mm diameter). The three electrodes were connected to a potentiostat/galvanostat PAR273. […] The current (amps) proportional to the NO concentration was measured with the sensor, which operated in amperometric mode at a constant potential of 0.63 V. Data were acquired with the use of custom software. Amperograms (current vs. time curves) were recorded with a Guniry FAS1 Femtostat (Warminster, Pa.).

[4] = test system: human umbilical vein endothelial cells (HUVEC); assay: Calcium ionophore (CaI)-stimulated total peroxynitrite release from HUVEC; format: cell-based; settings: 3S,3′S-AST 5.0 μM, clopidogrel 1.0 μM, alone or in combination; FIG. 6
Protocol: as §1

[5] = test system: human umbilical vein endothelial cells (HUVEC); assay: CaI-stimulated NO/OONO- release ratio from HUVEC; format: cell-based; settings: 3S,3′S-AST 5.0 μM, clopidogrel 1.0 μM, alone or in combination; FIG. 7
Protocol: as §1

[6] = design: species or system rats; settings: in vivo, po, 500 mg/kg
Protocol: In one experiment, astaxanthin; all-trans 3S,3'S-astaxanthin diester disuccinate disodium salt (hereinafter “ADS”); and all-trans 3S,3'S-astaxanthin diester […] tetrahydrochloride salt (hereinafter “ADL”) were administered orally to separate rats as a lipid suspension. A single dose that included 500 mg/kg of the carotenoid/carotenoid derivative was administered to each rat. (See FIG. 20, PK Study #CXPK07201). Plasma from each of the rats was collected 4 hours after ingestion and 8 hours after ingestion and all samples were analyzed by high performance liquid chromatography (“HPLC”). HPLC analysis was used to detect the presence of free underivatized carotenoid (e.g., in this example, astaxanthin) in the plasma. HPLC chromatograms were collected for each plasma sample taken.

[7] = rat, in vivo
Protocol: In a another experiment, all-trans 3S,3′S-astaxanthin diester diglycinate dihydrochloride salt (hereinafter “ADG”); all-trans 3S,3′S-astaxanthin diester disarcosinate dihydrochloride salt (hereinafter “ADSa”); and ADL were administered orally to separate rats as a aqueous suspension containing 0.5% carboxymethylcellulose. A single dose that included 40 mg/kg of the carotenoid derivative was administered to each rat. (See FIG. 20, PK Study #CXPK07202). For each carotenoid derivative given to the rats in this example, the amount of all astaxanthin isomers, the amount of trans astaxanthin isomers, and the amount of cis astaxanthin isomers in the plasma was determined at predefined time intervals for 3 days (72 hours).
In another experiment, ADG; ADSa; and ADL were administered to separate rats intravenously as an aqueous solution. A single dose that included 5 mg/kg of the carotenoid derivative was administered to each rat. (See FIG. 20, PK Study #CXPK07202). For each carotenoid derivative given to the rats in this example, the amount of all astaxanthin isomers, the amount of trans astaxanthin isomers, and the amount of cis astaxanthin isomers in the plasma was determined at predefined time intervals for 3 days (72 hours).

[8] = Dog PK of astaxanthin derivatives (CXPK07402, 07404, 07405, 07406); settings: dog, in vivo, po, 20 mg/kg
Protocol: In another experiment, ADL was administered to non-naïve beagle dogs orally (as an aqueous suspension containing 0.5% carboxymethylcellulose) and intravenously as an aqueous solution. Oral doses that included 10 mg/kg of the carotenoid derivative, 100 mg/kg of the carotenoid derivative, and 500 mg/kg of the carotenoid derivative were administered to each dog. The intravenous dosage was 5 mg/kg. (See FIG. 20, PK Study #CXPK07402). For each carotenoid derivative given to the dogs in this example, the amount of all astaxanthin isomers, the amount of trans astaxanthin isomers, and the amount of cis astaxanthin isomers in the plasma was determined at predefined time intervals for 3 days (72 hours).
In another experiment, ADL was administered to naïve beagle dogs orally (as an aqueous suspension containing 0.5% carboxymethylcellulose) twice a day for six days. Each oral dose included 75 mg/kg of the carotenoid derivative. (See FIG. 20, PK Study #CXPK07404). For each carotenoid derivative given to the dogs in this example, the amount of all astaxanthin isomers, the amount of trans astaxanthin isomers, and the amount of cis astaxanthin isomers in the plasma was determined at predefined time intervals for 6 days.
In another experiment, all-trans 3S,3′ S-astaxanthin diester di-beta-alanine dihydrochloride salt (hereinafter “ADA”); ADG; ADL; ADSa; and ADS were administered orally to separate non-naïve dogs as a aqueous suspension containing 0.5% carboxymethylcellulose. A single dose that included 20 mg/kg of the carotenoid derivative was administered to each dog. (See FIG. 20, PK Study #CXPK07405). For each carotenoid derivative given to the dogs in this example, the amount of all astaxanthin isomers was determined at predefined time intervals for 3 days (72 hours).
In another experiment, ADG or ADSa was administered to non-naïve beagle dogs orally (as an aqueous suspension containing 0.5% carboxymethylcellulose). Oral doses included either 50 mg/kg of the carotenoid derivative or 100 mg/kg of the carotenoid derivative. (See FIG. 20, PK Study #CXPK07406). For each carotenoid derivative given to the dogs in this example, the amount of all astaxanthin isomers, the amount of trans astaxanthin isomers, and the amount of cis astaxanthin isomers in the plasma was determined at predefined time intervals for 3 days (72 hours).

[9] = Monkey PK oral and intravenous (CXPK07502); format: in vivo; settings: monkeys; oral 10, 300, 500 mg/kg and intravenous 5 mg/kg
[10] = astaxanthin combined with aspirin 1.0 μM, IP3 1.0 μM, FIG. 14

CC1=C(/C=C/C(C)=C/C=C/C(C)=C/C=C/C=C(C)/C=C/C=C(C)/C=C/C2=C(C)C(=O)[C@@H](O)CC2(C)C)C(C)(C)C[C@H](O)C1=O [homochiral astaxanthin, astaxanthin]
sustained production of NO with time (amperogram) (vascular platelets; IP3-stimulated, 3S,3′S-AST 5.0 μM alone or with clopidogrel 1.0 μM, FIG. 4): 13 s | mean increase in capacity to generate bioavailable NO vs. controls (vascular platelets; IP3 stimulation, homochiral astaxanthin 5.0 μM alone): two-fold | increase in platelet NO generation/release vs. mean control levels (vascular platelets; IP3 stimulation, homochiral astaxanthin 5 μM, clopidogrel 1 μM, each as monotherapy): ~100% | total NO release from vascular platelets (vascular platelets; IP3 stimulation, homochiral astaxanthin 5.0 μM, clopidogrel 1.0 μM, controls 6.6±0.3, mean±S.D.): 12.9±0.3 molecules NO×10^6/platelet | increase in NO release over untreated samples (vascular platelets; [10]): 3 fold | potentiation of the NO release observed by aspirin alone (vascular platelets; [10]): 80% | effect of astaxanthin on simvastatin's platelet-derived NO release (vascular platelets; increasing astaxanthin with simvastatin 1.0 μM, IP3 1.0 μM): enhanced the effect of simvastatin on platelet-derived NO release in a dose-dependent fashion | effect on platelet ONOO— release (platelets [1]): decreased | effect of astaxanthin on aspirin-induced ONOO— release (platelets [1]; increasing astaxanthin with aspirin 1.0 μM, FIG. 13): reverse the effect of aspirin on ONOO— release in a dose-dependent manner | NOS coupling efficiency (ratio of NO/ONOO—), increase over control levels as well as aspirin alone (platelets [2]; astaxanthin combined with aspirin 1.0 μM): approximately three-fold | effect on CaI-stimulated total nitric oxide release from HUVEC [3]: Statistically significant increases | effect on CaI-stimulated total peroxynitrite (OONO−) release from HUVEC [4]: Statistically significant decreases | effect on CaI-stimulated NO/OONO− release ratio from HUVEC [5]: Statistically significant increases | free astaxanthin in rat plasma [6]: no significant amount

CNCC(=O)O[C@H]1CC(C)(C)C(/C=C/C(C)=C/C=C/C(C)=C/C=C/C=C(C)/C=C/C=C(C)/C=C/C2=C(C)C(=O)[C@@H](OC(=O)CNC)CC2(C)C)=C(C)C1=O.Cl.Cl (relative stereo) [ADSa, all-trans 3S,3′S-astaxanthin diester disarcosinate dihydrochloride salt]
absorption and metabolism to astaxanthin in plasma ([7]; iv, 5 mg/kg): absorbed by the rats and metabolized | absorption and metabolism to astaxanthin in plasma ([7]; po, 40 mg/kg): absorbed by the rats and metabolized | absorption and metabolism to astaxanthin in plasma [8]: absorbed by the dogs and metabolized | absorption and metabolism to astaxanthin in plasma [9]: absorbed by the monkeys and metabolized

CC(=O)Oc1ccccc1C(=O)O [aspirin, reference compound]
effect on platelet ONOO— release (platelets [1]): increased | effect on NO/ONOO— ratio (platelets [2]; aspirin separately, 1.0 μM): failed to produce a favorable effect
